The values below are quoted from earlier work in patent publication US5427767A, “Nanocrystalline magnetic iron oxide particles-method for preparation and use in medical diagnostics and therapy” (Institut fur Diagnostikforschung GmbH an der Freien …, priority 1991, dated 1995).

For series [1] the following is noted: 0.47 T, water, 40° C.
For series [2] the following is noted: in vivo.

Turning to `O=C([O-])CN(CCN(CC(=O)[O-])CC(=O)O)CCN(CC(=O)[O-])CC(=O)O.[Gd+3]` [Gd-DTPA], in series [1], the T1 relaxivity is ~4 1/mmol .phi.s and the T2 relaxivity is listed as ~4 1/mmol .phi.s. For the compound dextran, in series [2], the allergic potential entry is “adverse allergic potential”.
